In patent US20090048328A1, “Compound Comprising Prodigiosin From Serratia Macescence B-1231 Kctc 0386Bp for Prevention and Treatment of Acute Graft-Versus-Host Disease” (priority 2005, published 2009):
“Also recorded” adds a separate entry of the source.

Tests used:
T-cells [1] = assay: ConA-induced T-cell proliferation, [3H]-thymidine incorporation; assay type: cell-based, C57BL/6 mouse; conditions: 1 μg/ml ConA; 3, 10, 30 ng/ml compound
Description: (§1) T-cells were separated from the spleen of the C57BL/6 mouse for the experiment. 1 μg/ml concanavalin A (ConA) was used to generate the proliferation of T-cells, and 1 μg/ml lypopolysaccaride induced proliferation of the B-cells. The prodigiosin separated in Execution Example 1 was melted in dimethyl sulfoxide (DMSO) and was added to the culture medium in a manner to achieve a final concentration of 3, 10, 30 ng/ml. After 60 hours of cultivation, [^3H]-thymidine was added to the culture medium with a concentration of 1 μCi/well. After 12 hours, the cells were collected and the amount of radioactivity in the DNA was measured.
T-cells were separated from the spleen of the C57BL/6 mouse for the experiment. 1 μg/ml ConA and 10 unit/ml IL-2 were used to generate the proliferation of T-cells. In the control group, 1 μg/ml ConA induced the proliferation of T-cells. […] After 12 hours, the cells were collected and the amount of radioactivity in the DNA was measured.
T-cells were separated from the spleen of the C57BL/6 mouse for the experiment. […] After 12 hours, the cells were collected and the amount of radioactivity in the DNA was measured. […]
Prodigiosin was melted in DMSO and added to the culture medium in a manner to achieve a final concentration of 3, 10, 30 ng/ml. […] After 12 hours, the cells were collected and the amount of radioactivity in the DNA was measured. […]

B-cells = assay: Lipopolysaccharide-induced B-cell proliferation, [3H]-thymidine incorporation; assay type: cell-based, C57BL/6 mouse; conditions: 1 μg/ml lipopolysaccharide; 3, 10, 30 ng/ml compound
Description: as §1

IL-2 mRNA = assay: Expression of IL-2 mRNA in ConA-activated T-cells, RT-PCR; assay type: cell-based, C57BL/6 mouse; conditions: 1 μg/ml ConA, 4 hours, 3, 10, 30 ng/ml compound
Description: T-cells were separated from the spleen of the C57BL/6 mouse for the experiment. 1 μg/m ConA was used to activate the T-cells. […]. After 4 hours of cultivation, the cells were collected. After separating the RNA from the cells, the degree of expression of IL-2 mRNA was measured through RT-PCR (reverse transcription-polymerase chain reaction).

T-cells [2] = assay: T-cell proliferation induced by ConA plus added IL-2, [3H]-thymidine incorporation; assay type: cell-based, C57BL/6 mouse; conditions: 1 μg/ml ConA and 10 unit/ml IL-2; 3, 10, 30 ng/ml compound
Description: (§2) T-cells were separated from the spleen of the C57BL/6 mouse for the experiment. 1 μg/ml ConA and 10 unit/ml IL-2 were used to generate the proliferation of T-cells. In the control group, 1 μg/ml ConA induced the proliferation of T-cells. Prodigiosin was melted in DMSO and added to the culture medium in a manner to achieve a final concentration of 3, 10, 30 ng/ml. After 60 hours of cultivation, [^3H]-thymidine was added to the culture medium with a concentration of 1 μCi/well. After 12 hours, the cells were collected and the amount of radioactivity in the DNA was measured.
as §2, with “Prodigiosin was melted in DMSO and added to the culture medium in a manner to achieve a final concentration of 3, 10, 30 ng/ml.” left out

IL-2 dependent T-cells = assay: IL-2-dependent T-cell proliferation (ConA pre-treated cells), [3H]-thymidine incorporation; assay type: cell-based, C57BL/6 mouse; conditions: cells pre-treated with 1 μg/ml ConA 48 hours, washed, 10 unit/ml IL-2; 3, 10, 30 ng/ml compound
Description: (§3) In order to measure IL-2 dependent T-cell proliferation, T-cells separated from the spleen of the mouse were treated with 1 μg/ml ConA for 48 hours. Then, the cells were washed three times to get rid of all ConA for further experiment. […] 10 unit/ml IL-2 was added to the pre-treated cells to induce T-cell proliferation (IL-2-dependent T cell proliferation).
Prodigiosin was melted in DMSO and added to the culture medium in a manner to achieve a final concentration of 3, 10, 30 ng/ml. After 60 hours of cultivation, [^3H]-thymidine was added to the culture medium with a concentration of 1 μCi/well. After 12 hours, the cells were collected and the amount of radioactivity in the DNA was measured.
as §3, with “all the” for “all”, “T-cell” for “T cell”
After 60 hours of cultivation, [^3H]-thymidine was added to the culture medium with a concentration of 1 μCi/well. After 12 hours, the cells were collected and the amount of radioactivity in the DNA was measured.

[3] = system: acute graft-versus-host disease; assay: Mouse survival in acute graft-versus-host disease after bone marrow transplantation; assay type: in vivo, Balb/c mouse; conditions: 1 mg/kg, peritoneal injections every other day
Excerpt: (§4) To induce acute graft-versus-host disease, bone marrow cells (5×10^7 cells) and spleen cells (1×10^7 cells) of the C57BL/6 mouse were transplanted to the Balb/c mouse, which had been irradiated and had lost immune function.

[4] = system: IL-2 receptors (IL-2R alpha); assay: Expression of IL-2 receptor (IL-2R alpha) mRNA in ConA-activated T-cells, RT-PCR; assay type: cell-based, C57BL/6 mouse; conditions: 1 μg/ml ConA, 4 hours, 3, 10, 30 ng/ml compound
[5] = system: acute graft-versus-host disease; assay type: in vivo, Balb/c mouse; conditions: 1 mg/kg, peritoneal injections every other day; weight loss from 2nd to 6th day, regain from 7th day; control mice lost weight up to 9th day and died
Excerpt: as §4

`CCCCCC1=C/C(=C/c2[nH]c(-c3ccc[nH]3)cc2OC)N=C1C` [prodigiosin] was tested, and the “effect on proliferation of T-cells induced by ConA” value (T-cells [1]) was “selectively suppressed the proliferation of T-cells; also recorded: suppressed T-cells proliferated by ConA”, the “effect on proliferation of B-cells” value (B-cells) was “could not suppress the proliferation of B-cells” and the “effect on expression of IL-2 mRNA” value (IL-2 mRNA) was “did not influence the expression of IL-2 mRNA”. The “effect of added IL-2 on the suppression of T-cell proliferation” value (T-cells [2]) was “did not suppress the excessive amount of IL-2 that was added from the outside”, the “effect on IL-2-dependent T-cell proliferation” value (IL-2 dependent T-cells) was “did not suppress the T-cell proliferation by IL-2” and the “Balb/c mice died six days after the cell transplantation” value ([3]; control group 50% died by day 6) was 35%. For the same compound, the “mice survived through to the end of the experiment” value ([3]; observed for 14 days, all control mice died by the 10th day) was 65%, the “effect on expression of IL-2 receptor mRNA” value [4] was “efficiently suppressed the expression of IL-2 mRNA” and the “changes in weight of the mice” value [5] was “recovered normal weight by the 14th day”.
